Assay results taken from BindingDB's records for doi:10.1021/jm300844m (The University of Newcastle, 2013).

Test: Inhibition of dyn2 in human U2OS cells assessed as clathrin-mediated endocytosis of Tfn after 30 mins

IC50 | Structure (SMILES)
3.5 µM | CCCCCCCCNCc1cn(CCCN(C)C)c2ccccc12
5 µM | CCCCCCCCNC(=O)/C(C#N)=C/c1cn(CCCN(C)C)c2ccccc12 [2-Cyano-N-octyl-3-(1-(3-dimethylaminopropyl)-1H-indol-3-yl)-acrylamide]
